# According to US20230295152A1 (SENDA BIOSCIENCES, INC., priority 2019, published 2023):
# Where two headings read alike, the source gives them in different places.
# Tests used:
# AHR = biological target: T1, AHR (Homo sapiens, UniProt P35869); assay: DRE-Luciferase Reporter Assay, HepG2 AhR-Lucia reporter cells; format: cell-based; conditions: with AHR activating ligand at EC50, read-out: HepG2-Luc IC50
# T1 construct: other cell line with a DRE-luciferase reporter stably transfected; endogenous in cells; host or cells: HepG2 AhR-Lucia reporter cells
# T1 sequence (P35869 11-848): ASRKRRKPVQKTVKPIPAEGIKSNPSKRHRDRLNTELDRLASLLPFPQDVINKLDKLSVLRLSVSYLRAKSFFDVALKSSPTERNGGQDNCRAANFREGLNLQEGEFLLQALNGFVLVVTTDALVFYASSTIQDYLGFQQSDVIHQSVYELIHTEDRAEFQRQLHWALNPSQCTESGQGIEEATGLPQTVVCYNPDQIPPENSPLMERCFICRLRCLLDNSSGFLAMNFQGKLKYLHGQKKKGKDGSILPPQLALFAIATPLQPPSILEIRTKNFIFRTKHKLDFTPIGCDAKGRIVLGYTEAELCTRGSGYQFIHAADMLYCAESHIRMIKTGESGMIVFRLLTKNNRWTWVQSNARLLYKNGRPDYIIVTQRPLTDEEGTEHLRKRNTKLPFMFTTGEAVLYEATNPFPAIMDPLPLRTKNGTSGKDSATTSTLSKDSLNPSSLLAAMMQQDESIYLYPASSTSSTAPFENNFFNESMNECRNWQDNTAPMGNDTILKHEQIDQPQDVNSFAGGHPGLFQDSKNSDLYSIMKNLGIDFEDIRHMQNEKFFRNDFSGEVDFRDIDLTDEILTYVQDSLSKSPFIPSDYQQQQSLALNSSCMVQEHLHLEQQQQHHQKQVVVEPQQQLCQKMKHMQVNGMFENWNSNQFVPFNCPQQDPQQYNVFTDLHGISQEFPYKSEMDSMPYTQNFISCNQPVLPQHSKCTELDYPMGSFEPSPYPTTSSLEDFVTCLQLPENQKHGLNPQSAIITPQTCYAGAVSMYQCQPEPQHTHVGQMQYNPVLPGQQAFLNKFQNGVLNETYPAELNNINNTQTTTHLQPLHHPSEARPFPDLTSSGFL
# Method in brief: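 Antagonism read as inhibition of agonist-driven secreted luciferase in stably DRE-reporter-transfected cells such as HepG2 AhR-Lucia. Agonist ligand at EC50 concentration added 1 hr post-plating alongside antagonist (log series, top 100 uM); supernatant read at 24 or 48 h, IC50 derived against agonist-only maximum.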
# [1] = Solubility Determination Assay in PBS pH 1.6 and pH 7.4; format: physicochemical; conditions: PBS buffer, aqueous buffer, kinetic from dmso stock
# Protocol: The stock solutions of test compounds and control compound progesterone were prepared in DMSO at the concentrations of 10 mM. 15 μL of stock solution (10 mM) of each sample was placed in order into their proper 96-well rack. 485 μL of PBS pH 1.6 and pH 7.4 were added into each vial of the cap-less Solubility Sample plate. The assay was performed in singlet. One stir stick was added to each vial and then the vial was sealed using a molded PTFE/Silicone plug. […] After completion of the 2 hours, plugs were removed and the stir sticks were removed using a big magnet. The samples from the Solubility Sample plate were transferred into the filter plate. Using the Vacuum Manifold, all the samples were filtered. An aliquot of 5 μL was taken from the filtrate followed by addition of 495 μL of a mixture of H2O and acetonitrile containing internal standard (1:1). A certain proportion of ultrapure water was used to dilute the diluent according to the peak shape. The dilution factor was changed according to the solubility values and the LC-MS signal response.
# From the 10 mM DMSO STD plate, 6 μL was transferred into the remaining empty plate, and then 194 μL of DMSO were added to that plate to have a STD concentration of 300 μM. From the 300 μM DMSO STD plate, 5 μL were transferred into the remaining empty plate, and then 495 μL of a mixture of H2O and acetonitrile containing internal standard (1:1) were added to that plate to have a final STD concentration of 3 μM. A certain proportion of ultrapure water was used to dilute the diluent according to the peak shape. The concentrations of the standard samples were changed according to the LC-MS signal response.
# The plate was placed into the well plate autosampler. The samples were evaluated by LC-MS/MS analysis.
# All calculations were carried out using Microsoft Excel.
# The filtrate was analyzed and quantified against a standard of known concentration using LC coupled with mass spectral peak identification and quantitation. Solubility values of the test compound and control compound were calculated as follows: […]
# Any value of the compounds that was not within the specified limits was rejected and the experiment was repeated.
# “+++” indicates a solubility value equal to or greater than 1 μM, “++” indicates a solubility value between 0.1 and 1 μM, and “+” indicates a solubility value less than 0.1 μM.
# [2] = Hepatocyte Stability Assay, human; format: in vitro ADME; conditions: cryopreserved hepatocytes in suspension; human hepatocytes; read-out: Human hepatocyte clearance
# Protocol: • Preparation of working solutions: 10 mM stock solutions of test compound and positive control were prepared in DMSO. In separate conical tubes, the 10 mM solution of test compound and the positive control were diluted to 100 μM by combining 198 μL of 50% acetonitrile/50% water and 2 μL of 10 mM stock.
# Preparation of Hepatocytes: Incubation medium (William's E Medium supplemented with GlutaMAX) and hepatocyte thawing medium were placed in a 37° C. water bath and allowed warming for at least 15 minutes prior to use. A vial of cryopreserved hepatocytes was transferred from storage, ensuring that vials remained at cryogenic temperatures until thawing process ensued. Cells were thawed by placing the vial in a 37° C. water bath and gently shaking the vials for 2 minutes. After thawing was completed, vial was sprayed with 70% ethanol and transferred to a biosafety cabinet. Wide-bore pipette tip were used to transfer hepatocytes into 50 mL conical tube containing thawing medium. The 50 mL conical tube were placed into a centrifuge and spun at 100 g for 10 minutes. Upon completion of spin, thawing medium was aspirated and resuspended hepatocytes in enough incubation medium to yield ˜1.5×10^6 cells/mL. Using an AO/PI Staining, cells were counted and the viable cell density was determined. Cells with poor viability (<75% viability) were determined to be not acceptable for use. Cells were diluted with incubation medium to a working cell density of 0.5×10^6 viable cells/mL.
# Procedure for Stability Determination: 198 μL of hepatocytes were pipetted into each wells of a 96-well non-coated plate. The plate was placed in the incubator to allow the hepatocytes to warm for 10 minutes. 2 μL of the 100 μM test compound or positive control solutions were pipetted into respective wells of the 96-well non-coated plate to start the reaction. The plate was returned to the incubator for the designed time points. Well contents was transferred in 25 μL aliquots at time points of 0, 15, 30, 60, 90 and 120 minutes. The aliquots were then mixed with 6 volumes (150 μL) of acetonitrile containing internal standard, IS (100 nM alprazolam, 200 nM caffeine and 100 nM tolbutamide) to terminate the reaction. The mixture was vortex for 5 minutes. Samples were centrifuged for 45 minutes at 3,220 g. An aliquot of 100 μL of the supernatant was diluted by 100 μL ultra-pure water, and the mixture was used for LC/MS/MS analysis. All incubations were performed in duplicate.
# Data Analysis: All calculations were carried out using Microsoft Excel. Peak areas were determined from extracted ion chromatograms. In vitro half-life (t1/2) of parent compound was determined by regression analysis of the percent parent disappearance vs. time curve.
# The in vitro half-life (in vitro t1/2) was determined from the slope value:
# Conversion of the in vitro t1/2 (in min) into the in vitro intrinsic clearance (in vitro CLint, in μL/min/1×10^6 cells) was done using the following equation (mean of duplicate determinations):
# V=incubation volume(0.2 mL);
# N=number of hepatocytes per well(0.1×10^6 cells).
# “+++” indicates a CLint value less than 20 mL/min/Kg, “++” indicates a CLint between 20 and 50 mL/min/Kg, and “+” indicates an CLint above 50 mL/min/Kg.
# [3] = PBS pH 1.6, 25° C., read-out: Aq. Solubility at pH = 1.6
# [4] = PBS pH 7.4, 25° C., read-out: Aq. Solubility at pH = 7.4
SMILES,IC50 (AHR) [nM],"solubility at 2 h [1, 3] [µM]","solubility at 2 h [1, 4] [µM]",CLint scaled at 1 μM [2] [mL/min/kg]
C[C@@H](CO)n1cnc2c(-c3cccnc3)nc(-c3ccc(Cl)cc3)cc2c1=O [Compound 24],< 100,≥ 1,≥ 1,
Cc1ccc(-c2cc3c(=O)n([C@H](CO)C(C)C)cnc3c(-c3cc(F)cc(F)c3)n2)cc1 [Compound 37],< 100,≥ 1,< 0.1,
CC(C)(O)Cn1cnc2c(-c3cccc(F)c3)nc(-c3ccc(Cl)cc3)cc2c1=O [Compound 38],< 100,< 0.1,< 0.1,
"O=c1c2cc(-c3ccc(C(F)(F)F)nc3)nc(-c3cccnc3)c2ncn1[C@@H]1COC[C@@H]1O [Compound 129, 3-((3R,4R)-4-hydroxytetrahydrofuran-3-yl)-8-(pyridin-3-yl)-6-(6-(trifluoromethyl)pyridin-3-yl)pyrido[3,4-d]pyrimidin-4(3H)-one]",< 100,≥ 1,≥ 1,
"O=c1c2cc(-c3ccc(Cl)cc3)nc(-c3cccnc3)c2ncn1[C@@H]1CNC[C@H]1O [Compound 134, 6-(4-chlorophenyl)-3-((3R,4R)-4-hydroxypyrrolidin-3-yl)-8-(pyridin-3-yl)pyrido[3,4-d]pyrimidin-4(3H)-one]",< 100,,,< 20
"O=c1c2cc(-c3ccc(C(F)(F)F)cn3)nc(-c3cccnc3)c2ncn1[C@@H]1COC[C@@H]1O [Compound 148, 3-((3R,4R)-4-hydroxytetrahydrofuran-3-yl)-8-(pyridin-3-yl)-6-(5-(trifluoromethyl)pyridin-2-yl)pyrido[3,4-d]pyrimidin-4(3H)-one]",< 100,≥ 1,≥ 1,
"C[C@@H](CO)n1cnc2c(-c3cccnc3)nc(C3CCCCC3)cc2c1=O [Compound 181, (S)-6-cyclohexyl-3-(1-hydroxypropan-2-yl)-8-(pyridin-3-yl)pyrido[3,4-d]pyrimidin-4(3H)-one]",> 500,,,
"C[C@@H](CO)n1cnc2c(-c3cccnc3)nc(-c3ccccn3)cc2c1=O [Compound 182, (S)-3-(1-hydroxypropan-2-yl)-6-(pyridin-2-yl)-8-(pyridin-3-yl)pyrido[3,4-d]pyrimidin-4(3H)-one]",100 to 500,,,

# Next, values leading:
IC50 (AHR) [nM],"solubility at 2 h [1, 3] [µM]","solubility at 2 h [1, 4] [µM]",CLint scaled at 1 μM [2] [mL/min/kg],SMILES
> 500,,,,"C[C@@H](CO)n1cnc2c(-c3cccnc3)nc(-c3cnnn3C)cc2c1=O [Compound 184, (S)-3-(1-hydroxypropan-2-yl)-6-(1-methyl-1H-1,2,3-triazol-5-yl)-8-(pyridin-3-yl)pyrido[3,4-d]pyrimidin-4(3H)-one]"
< 100,,,,"Cc1ccc(-c2cc3c(=O)n([C@@H](C)CO)cnc3c(-c3cccnc3)n2)nc1 [Compound 186, (S)-3-(1-hydroxypropan-2-yl)-6-(5-methylpyridin-2-yl)-8-(pyridin-3-yl)pyrido[3,4-d]pyrimidin-4(3H)-one]"
> 500,,,,"Cc1cnc(-c2cc3c(=O)n([C@@H](C)CO)cnc3c(-c3cccnc3)n2)nc1 [Compound 187, (S)-3-(1-hydroxypropan-2-yl)-6-(5-methylpyrimidin-2-yl)-8-(pyridin-3-yl)pyrido[3,4-d]pyrimidin-4(3H)-one]"
100 to 500,,,,"C[C@@H](CO)n1cnc2c(C3=CCCCC3)nc(-c3ccc(C(F)(F)F)cn3)cc2c1=O [Compound 188, (S)-8-(cyclohex-1-en-1-yl)-3-(1-hydroxypropan-2-yl)-6-(5-(trifluoromethyl)pyridin-2-yl)pyrido[3,4-d]pyrimidin-4(3H)-one]"
> 500,,,,"C[C@@H](CO)n1cnc2c(C3CCCCC3)nc(-c3ccc(C(F)(F)F)cn3)cc2c1=O [Compound 189, (S)-8-cyclohexyl-3-(1-hydroxypropan-2-yl)-6-(5-(trifluoromethyl)pyridin-2-yl)pyrido[3,4-d]pyrimidin-4(3H)-one]"
> 500,,,,"C[C@@H](CO)n1cnc2c(-c3cccnc3)nc(C(=O)N(C)C)cc2c1=O [Compound 190, (S)-3-(1-hydroxypropan-2-yl)-N,N-dimethyl-4-oxo-8-(pyridin-3-yl)-3,4-dihydropyrido[3,4-d]pyrimidine-6-carboxamide]"
< 100,,,,"C[C@@H](CO)n1cnc2c(-c3cn[nH]c3)nc(-c3ccc(C(F)(F)F)cn3)cc2c1=O [Compound 191, (S)-3-(1-hydroxypropan-2-yl)-8-(1H-pyrazol-4-yl)-6-(5-(trifluoromethyl)pyridin-2-yl)pyrido[3,4-d]pyrimidin-4(3H)-one]"
> 500,,,,"COCCc1cc2c(=O)n([C@@H](C)CO)cnc2c(-c2cccnc2)n1 [Compound 192, (S)-3-(1-hydroxypropan-2-yl)-6-(2-methoxyethyl)-8-(pyridin-3-yl)pyrido[3,4-d]pyrimidin-4(3H)-one]"
